The record followed here is ChEMBL document CHEMBL1137473, “Pyrazole-based cathepsin S inhibitors with improved cellular potency” (Bioorg Med Chem Lett, 2007).

Active and inactive are the calls of the source. The rule behind the calls is not given here.

The target of experiment [1] is T1, Cathepsin S (Homo sapiens, UniProt P25774). As to the kind of experiment: Inhibition of cathepsin S in human JY cells by invariant chain degradation assay. It counts as cell-based.
Target sequence in this assay (P25774 whole entry): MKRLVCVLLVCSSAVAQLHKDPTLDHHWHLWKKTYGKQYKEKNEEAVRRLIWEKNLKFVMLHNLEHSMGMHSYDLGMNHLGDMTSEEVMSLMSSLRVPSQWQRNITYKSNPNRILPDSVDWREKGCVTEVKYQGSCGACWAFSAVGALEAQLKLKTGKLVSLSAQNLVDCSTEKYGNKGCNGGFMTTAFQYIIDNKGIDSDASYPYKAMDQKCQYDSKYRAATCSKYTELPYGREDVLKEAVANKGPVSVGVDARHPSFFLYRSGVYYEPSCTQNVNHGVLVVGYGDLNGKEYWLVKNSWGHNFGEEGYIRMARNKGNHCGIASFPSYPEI
Experiment [2] deals with T1, Cathepsin S. As to the kind of experiment: Inhibition of human cathepsin S.
Target sequence in this assay (P25774 whole entry): as above
The target of experiment [3] is T2, Cathepsin E (Homo sapiens) (UniProt P14091).
T2 sequence (whole entry): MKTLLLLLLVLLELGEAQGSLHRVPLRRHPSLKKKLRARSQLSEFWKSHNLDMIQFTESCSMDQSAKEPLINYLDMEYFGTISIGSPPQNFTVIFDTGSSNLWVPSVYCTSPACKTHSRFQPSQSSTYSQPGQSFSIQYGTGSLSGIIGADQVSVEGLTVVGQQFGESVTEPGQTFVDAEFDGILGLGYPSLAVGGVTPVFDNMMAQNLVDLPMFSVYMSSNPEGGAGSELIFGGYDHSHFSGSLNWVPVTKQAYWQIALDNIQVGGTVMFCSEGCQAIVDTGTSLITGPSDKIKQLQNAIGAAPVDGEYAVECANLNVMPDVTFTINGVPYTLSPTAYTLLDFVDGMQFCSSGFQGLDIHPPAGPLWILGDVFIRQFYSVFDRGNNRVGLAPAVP
Nature of the experiment: Inhibition of cathepsin E upto 5 uM.

The next experiment addresses T3, Legumain (Homo sapiens) (UniProt Q99538).
T3 sequence (whole entry): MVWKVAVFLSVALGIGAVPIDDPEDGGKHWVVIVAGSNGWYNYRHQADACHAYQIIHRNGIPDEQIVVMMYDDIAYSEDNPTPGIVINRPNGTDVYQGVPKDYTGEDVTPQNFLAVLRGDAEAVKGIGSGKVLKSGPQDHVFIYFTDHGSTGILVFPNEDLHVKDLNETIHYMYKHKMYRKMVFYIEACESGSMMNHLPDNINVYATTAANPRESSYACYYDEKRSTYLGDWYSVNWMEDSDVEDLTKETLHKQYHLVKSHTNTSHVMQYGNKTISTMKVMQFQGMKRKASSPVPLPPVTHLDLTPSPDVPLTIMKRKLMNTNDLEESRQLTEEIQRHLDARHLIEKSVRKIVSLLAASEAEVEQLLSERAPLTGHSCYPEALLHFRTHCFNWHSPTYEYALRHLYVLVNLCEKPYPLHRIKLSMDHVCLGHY
As to the kind of experiment: Inhibition of legumain upto 5 uM.

The target in experiment [4] is Procathepsin L (Homo sapiens) (UniProt P07711). As to the kind of experiment: Inhibition of cathepsin L upto 5 uM.
Procathepsin L (Homo sapiens), sequence (P07711 114-333 limits assumed): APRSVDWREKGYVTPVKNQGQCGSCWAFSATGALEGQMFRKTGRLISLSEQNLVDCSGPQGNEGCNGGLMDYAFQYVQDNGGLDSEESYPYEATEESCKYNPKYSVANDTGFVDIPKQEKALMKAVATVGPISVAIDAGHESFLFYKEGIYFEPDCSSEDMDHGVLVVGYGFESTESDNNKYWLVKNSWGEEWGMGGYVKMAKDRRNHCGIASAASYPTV
Experiment [5] concerns the target Cathepsin B (Homo sapiens) (UniProt P07858). As to the kind of experiment: Inhibition of cathepsin B upto 5 uM.
Experiment [6] deals with T1, Cathepsin S. As to the kind of experiment: Inhibition of cathepsin S in human JY cells upto 10 uM by invariant chain degradation assay. It counts as cell-based.
Target sequence in this assay (P25774 115-331 limits assumed): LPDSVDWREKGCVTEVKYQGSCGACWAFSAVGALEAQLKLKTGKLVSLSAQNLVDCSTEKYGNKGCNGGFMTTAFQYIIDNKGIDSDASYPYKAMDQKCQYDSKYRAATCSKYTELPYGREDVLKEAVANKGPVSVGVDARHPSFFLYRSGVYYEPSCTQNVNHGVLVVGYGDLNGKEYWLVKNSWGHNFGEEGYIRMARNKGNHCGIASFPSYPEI

Turning to `N#Cc1ccccc1N1CCN(CC(Cn2nc(-c3ccc(I)cc3)c3c2CCN(C(N)=O)C3)OC(N)=O)CC1` (stereo unspecified), the IC50 on Cathepsin S [1] was found to be 800 nM; on Cathepsin S [2] it was 10 nM.

As for `CS(=O)(=O)N1CCc2c(c(-c3ccc(C(F)(F)F)cc3)nn2CC(O)CN2CCC(c3c[nH]c4ncccc34)CC2)C1` (stereo unspecified), the result (in experiment [3]; at Legumain (Homo sapiens); in experiment [4]) was inactive.

With `CS(=O)(=O)N1CCc2c(c(-c3ccc(C(F)(F)F)cc3)nn2CCCN2CCC(c3c(C(=O)O)sc4cc(F)ccc34)CC2)C1`, the results for the IC50 at Cathepsin S [1] and at Cathepsin S [2] were over 10000 nM and 100 nM, respectively.

On to `CS(=O)(=O)N1CCc2c(c(-c3ccc(C(F)(F)F)cc3)nn2CC(O)CN2CCC(N3C(=O)COc4ccccc43)CC2)C1` (stereo unspecified), for which the values for the IC50 against Cathepsin S [1] and on Cathepsin S [2] were 800 nM and 10 nM, respectively.

The compound `COC(=O)c1sc2cc(F)ccc2c1C1CCN(CC(O)Cn2nc(-c3ccc(C(F)(F)F)cc3)c3c2CCN(C(C)=O)C3)CC1` (stereo unspecified) registered an IC50 against Cathepsin S [2] of 140 nM.

`CS(=O)(=O)N1CCc2c(c(-c3ccc(C(F)(F)F)cc3)nn2CC(O)CN2CCC(c3c[nH]c4cnccc34)CC2)C1` (stereo unspecified): the outcome (in experiment [5]; in experiment [3]; on Legumain (Homo sapiens); in experiment [4]) was inactive.

`CN(C)C(=O)c1sc2cc(F)ccc2c1C1CCN(CCCn2nc(-c3ccc(C(F)(F)F)cc3)c3c2CCN(S(C)(=O)=O)C3)CC1` registered an IC50 at Cathepsin S [2] of 370 nM.

With `CS(=O)(=O)N1CCc2c(c(-c3ccc(C(F)(F)F)cc3)nn2CC(O)CN2CCC(c3c[nH]c4ccncc34)CC2)C1` (stereo unspecified), the result (in experiment [5]; in experiment [3]; on Legumain (Homo sapiens); in experiment [4]) was inactive.

For `CC(=O)N1CCc2c(c(-c3ccc(C(F)(F)F)cc3)nn2CC(O)CN2CCC(c3coc4cc(F)ccc34)CC2)C1` (stereo unspecified), half-maximal inhibition against Cathepsin S [2] (IC50) required 360 nM.

In the case of `CS(=O)(=O)N1CCc2c(c(-c3ccc(Br)cc3)nn2CC(O)CN2CCC(c3c[nH]c4ccncc34)CC2)C1` (stereo unspecified), the IC50 worked out at 150 nM against Cathepsin S [1] and 77 nM against Cathepsin S [2].

In the case of `COC(=O)c1sc2cc(F)ccc2c1C1CCN(CCCn2nc(-c3ccc(C(F)(F)F)cc3)c3c2CCN(S(C)(=O)=O)C3)CC1`, the IC50 stood at 1800 nM against Cathepsin S [1] and 130 nM against Cathepsin S [2].

In turn, `COC(=O)c1oc2cc(F)ccc2c1C1CCN(CC(O)Cn2nc(-c3ccc(C(F)(F)F)cc3)c3c2CCN(C(C)=O)C3)CC1` (stereo unspecified) had an IC50 on Cathepsin S [2] of 220 nM.

For `Cn1c(=O)n(C2CCN(CCCn3nc(-c4ccc(Cl)c(Cl)c4)c4c3CCN(S(C)(=O)=O)C4)CC2)c2ccccc21`, the IC50 on Cathepsin S [1] amounted to 800 nM; against Cathepsin S [2] it was 10 nM.

In the case of `CC(=O)N1CCc2c(c(-c3ccc(C(F)(F)F)cc3)nn2CC(O)CN2CCC(c3c[nH]c4ccc(Cl)cc34)CC2)C1` (stereo unspecified), on Cathepsin S [2], the IC50 turned out to be 95 nM. Moreover, on Cathepsin S [6], the outcome was inactive.

Take `CS(=O)(=O)N1CCc2c(c(-c3ccc(C(F)(F)F)cc3)nn2CC(O)CN2CCC(c3c[nH]c4cccnc34)CC2)C1` (stereo unspecified): the outcome (in experiment [5]; in experiment [3]; at Legumain (Homo sapiens); in experiment [4]) was inactive.

The compound `CC(=O)N1CCc2c(c(-c3ccc(C(F)(F)F)cc3)nn2CC(O)CN2CCC(c3csc4cc(F)ccc34)CC2)C1` (stereo unspecified) showed an IC50 on Cathepsin S [2] of 290 nM.

`CS(=O)(=O)N1CCc2c(c(-c3ccc(Br)cc3)nn2CC(O)CN2CCC(c3c[nH]c4ncccc34)CC2)C1` (stereo unspecified) displayed an IC50 on Cathepsin S [2] of 195 nM.

At Cathepsin S [2], `CS(=O)(=O)N1CCc2c(c(-c3ccc(C(F)(F)F)cc3)nn2CC(O)CN2CCC(c3csc4cc(F)ccc34)CC2)C1` (stereo unspecified) showed an IC50 of 180 nM.
